Results published in patent US20250351832A1, “PHYTOCHEMICALS AS BIOPESTICIDES AND BIOSTIMULANTS” (KAY BEE BIO ORGANICS PVT. LTD., priority 2024, published 2025).
Where two headings read alike, the source gives them in different places.

Legend:
[1] = system: Alternaria alternata; assay: In vitro poisoned food technique against fungus (Ex. 20); format: cell-based; conditions: poisoned food technique, PDA medium, dose 1 ml/gm/lit., after seven days; for inhibition of growth at 1 mL or g/L: vs untreated control, read-out: % Inhibition of growth
[2] = system: Alternaria alternata; assay: Alternaria leaf spot/blight on inoculated tomato plants (Ex. 28); format: in vivo; conditions: tomato plants, Alternaria alternata; after 7 days; dose 1 ml/gm/lit
[3] = system: tomato seedlings; assay: Response of tomato plants, greenhouse growth (Ex. 30); format: in vivo
[4] = system: chili seedlings; assay: Response of chili plants, greenhouse growth (Ex. 31); format: in vivo
[5] = system: Aphid
[6] = system: Mite; conditions: Dose 1 ml/gm/lit.; 48 hrs
[7] = system: Spodoptera litura; conditions: 72 h, 1 mL or g/L
[8] = system: Thrips; conditions: 48 h, 1 mL or g/L
[9] = system: Aphid; conditions: 48 h, 1 mL or g/L
[10] = system: Thrips; conditions: 48 h
[11] = cited from earlier work; for Phytotonic Effect: Table 13, effect on plants, descriptive
[12] = system: Spodoptera litura; assay: whole plant or invertebrate; conditions: 72 h
[13] = system: Thrips; assay: whole plant or invertebrate; conditions: in Gossypium hirsutum, 48 h
[14] = system: Aphid; assay: whole plant or invertebrate; conditions: 48 h
[15] = system: Mealy Bug; assay: In vitro bio-efficacy against mealy bug (Ex. 16); conditions: in vivo
[16] = system: Mite; assay: Green house effect on mite, okra plants (Ex. 23); conditions: in vivo
[17] = system: Thrips; assay: Greenhouse effect on thrips, cotton plants (Ex. 27); conditions: in vivo
[18] = system: Mealy Bug; assay: Green house effect on mealy bugs, cotton plants (Ex. 24); conditions: in vivo
[19] = system: Helicoverpa armigera; assay: In vitro bio-efficacy against Helicoverpa armigera (Ex. 17); conditions: in vivo
[20] = system: Spodoptera litura; assay: Controlled conditions, Spodoptera litura on cabbage plants (Ex. 26); conditions: in vivo
[21] = system: Helicoverpa armigera; assay: Controlled conditions, Helicoverpa armigera on chickpea plants (Ex. 25); conditions: in vivo
[22] = tomato seedlings, 5th day after application, dose 1 ml/gm/lit
[23] = tomato seedlings, 10th day after application, dose 1 ml/gm/lit
[24] = tomato seedlings, 10th day, dose 1 ml/gm/lit
[25] = tomato seedlings, dose 1 ml/gm/lit, 10th day
[26] = chili seedlings, dose 1 ml/gm/lit, 5th day after application
[27] = chili seedlings, dose 1 ml/gm/lit, 10th day
[28] = chili seedlings, dose 1 ml/gm/lit, 10th day after application
[29] = Table 13, descriptive, no test described
[30] = read-out: % Corrected Mortality at 72 Hrs.
[31] = read-out: % Mortality at 72 Hrs.
[32] = read-out: % Corrected Mortality at 48 Hrs.
[33] = read-out: % Mortality at 48 Hrs.

SMILES: C=CCc1ccc(OC)c(O)c1 [Chavibetol]
- Mean colony Diameter (mm) [1]: 55.50 mm
- inhibition of growth at 1 mL or g/L [1]: 36.9%
- % Disease reduction over Control [2]: 47.11%
- Plant Height 5th Day [3, 22]: 7.26 cm
- Stem Girth 5th Day [3, 22]: 1.49 mm
- Plant Height 10th Day [3, 23]: 8.34 cm
- Stem Girth 10th Day [3, 23]: 2.25 mm
- Plant Height % Increase over pre on 10th Day [3, 24]: 36.50%
- Stem Girth % Increase over pre on 10th Day [3, 24]: 60.71%
- CCI 5th Day ([3]; tomato seedlings, dose 1 ml/gm/lit, 5th day after application): 14.68
- CCI % Increase over pre on 10th Day [3, 25]: 32.22%
- Root Length (cm) 10th Day [3, 25]: 4.69 cm
- CCI 10th Day ([3]; tomato seedlings, dose 1 ml/gm/lit, 10th day after application): 16.58
- Root Length % Increase over control ([3]; tomato seedlings, dose 1 ml/gm/lit, 10th day, vs water control): 41.03%
- CCI Pre [4]: 9.82
- Plant Height (cm) Pre [4]: 4.39 cm
- CCI 5th Day [4, 26]: 14.58
- Plant Height (cm) 5th Day [4, 26]: 5.07 cm
- CCI % Increase over pre on 10th Day [4, 27]: 52.55%
- Plant Height % Increase over pre on 10th Day [4, 27]: 59.00%
- Root Lenght (cm) 10th Day [4, 27]: 3.60 cm
- Stem Girth % Increase over pre on 10th Day [4, 27]: 45.45%
- CCI 10th Day [4, 28]: 14.98
- Plant Height (cm) 10th Day [4, 28]: 6.98 cm
- Root Lenght % Increase over control ([4]; chili seedlings, dose 1 ml/gm/lit, 10th day, vs water control): 31.63%
- Total No. of dead insect at 48 Hrs. [5]: 5.50
- % Corrected Mortality at 48 Hrs. ([5]; Dose 1 ml/gm/lit., 48 hrs): 48.57%
- % Corrected Mortality at 48 Hrs. [6]: 18.92%
- % Mortality at 48 Hrs. [6]: 25.00%
- Total No. of dead insect at 72 Hrs. [7]: 4.25
- Total No. of dead insect at 48 Hrs. [8]: 5.25
- Total No. of dead insect at 48 Hrs. [9]: 55.00
- Total No. of dead insect at 48 Hrs. [10]: 52.50
- Antioxidant Activity - Mode of action [11, 29]: Increasing Antioxidative
- Bactericidal Activity - Mode of action [11, 29]: Inhibit the reproduction
- Insecticidal Activities - Mode of action [11, 29]: Repellent
- Phytotonic Effect [11]: trigger seed
- mortality at 1 mL or g/L [12, 30]: 39.5%
- mortality at 1 mL or g/L [12, 31]: 42.5%
- mortality at 1 mL or g/L [13, 32]: 45.7%
- mortality at 1 mL or g/L [13, 33]: 52.5%
- mortality at 1 mL or g/L [14, 32]: 47.1%
- mortality at 1 mL or g/L [14, 33]: 55%
- % Corrected Mortality at 48 Hrs. [15]: 36.84%
- % Mortality at 48 Hrs. [15]: 40.00%
- % Corrected Mortality at 48 Hrs. [16]: 18.42%
- % Mortality at 48 Hrs. [16]: 22.50%
- % Corrected Mortality at 48 Hrs. [17]: 47.22%
- % Corrected Mortality at 48 Hrs. [18]: 38.89%
- % Mortality at 48 Hrs. [18]: 45.00%
- % Corrected Mortality at 72 Hrs. [19]: 42.50%
- % Mortality at 72 Hrs. [19]: 42.50%
- % Corrected Mortality at 72 Hrs. [20]: 41.05%
- % Mortality at 72 Hrs. [20]: 44.00%
- % Corrected Mortality at 72 Hrs. [21]: 47.50%
- % Mortality at 72 Hrs. [21]: 47.50%

SMILES: C=CCc1ccc(O)c(OC)c1 [Eugenol]
- inhibition of growth at 1 mL or g/L [1]: 42.6%
- CCI Pre [3]: 11.50
- Plant Height Pre [3]: 5.65 cm
- Stem Girth Pre [3]: 1.34 mm
- CCI 5th Day ([3]; 120 h): 13.74
- Plant Height 5th Day ([3]; 120 h): 6.66 cm
- Stem Girth 5th Day ([3]; 120 h): 1.70 mm
- CCI 10th Day ([3]; 240 h): 15.48
- Plant Height 10th Day ([3]; 240 h): 7.56 cm
- Root Length % Increase over control ([3]; 240 h): 31.25%
- Stem Girth 10th Day ([3]; 240 h): 2.31 mm
- Plant Height % Increase over pre on 10th Day [3, 24]: 33.81%
- Stem Girth % Increase over pre on 10th Day [3, 24]: 72.90%
- CCI % Increase over pre on 10th Day [3, 25]: 34.61%
- Root Length (cm) 10th Day [3, 25]: 4.37 cm
- CCI Pre [4]: 10.10
- Plant Height (cm) Pre [4]: 4.57 cm
- CCI 5th Day ([4]; 120 h): 13.40
- Plant Height (cm) 5th Day ([4]; 120 h): 6.53 cm
- CCI 10th Day ([4]; 240 h): 15.48
- Plant Height (cm) 10th Day ([4]; 240 h): 7.59 cm
- Root Lenght % Increase over control ([4]; 240 h): 52.07%
- CCI % Increase over pre on 10th Day [4, 27]: 53.27%
- Plant Height % Increase over pre on 10th Day [4, 27]: 66.08%
- Root Lenght (cm) 10th Day [4, 27]: 4.16 cm
- Stem Girth % Increase over pre on 10th Day [4, 27]: 54.59%
- Total No. of dead insect at 48 Hrs. [5]: 6.00
- % Corrected Mortality at 48 Hrs. ([5]; Dose 1 ml/gm/lit., 48 hrs): 54.29%
- % Mortality at 48 Hrs. ([5]; Dose 1 ml/gm/lit., 48 hrs): 60.00%
- % Corrected Mortality at 48 Hrs. [6]: 48.65%
- Total No. of dead insect at 72 Hrs. [7]: 6.00
- Total No. of dead insect at 48 Hrs. [8]: 2.50
- Total No. of dead insect at 48 Hrs. [9]: 65.00
- Total No. of dead insect at 48 Hrs. [10]: 27.50
- Acaricidal Activity - Mode of action [11, 29]: Inhibitory effects against
- Antifungal Activity - Mode of action [11, 29]: Inhibition of myceial growth
- Antioxidant Activity - Mode of action [11, 29]: Scavenge free radicals,
- Bactericidal Activity - Mode of action [11, 29]: Alters membrane permeability
- Insecticidal Activities - Mode of action [11, 29]: Growth inhibitory,
- Nematicidal Activity - Mode of action [11, 29]: Inhibited egg differentiation
- Virucidal Activity - Mode of action [11, 29]: Inactivated the cell-free
- Phytotonic Effect [11]: Regulating
- mortality at 1 mL or g/L [12, 30]: 57.9%
- mortality at 1 mL or g/L [12, 31]: 60%
- mortality at 1 mL or g/L [13, 32]: 14.3%
- mortality at 1 mL or g/L [13, 33]: 25%
- mortality at 1 mL or g/L [14, 32]: 58.8%
- mortality at 1 mL or g/L [14, 33]: 65%
- % Corrected Mortality at 48 Hrs. [15]: 63.16%
- % Mortality at 48 Hrs. [15]: 65.00%
- % Corrected Mortality at 48 Hrs. [16]: 50.00%
- % Mortality at 48 Hrs. [16]: 52.50%
- % Corrected Mortality at 48 Hrs. [17]: 19.44%
- % Mortality at 48 Hrs. [17]: 27.50%
- % Corrected Mortality at 48 Hrs. [18]: 72.22%
- % Mortality at 48 Hrs. [18]: 75.00%
- % Corrected Mortality at 72 Hrs. [19]: 47.50%
- % Mortality at 72 Hrs. [19]: 47.50%
- % Corrected Mortality at 72 Hrs. [20]: 60.53%
- % Mortality at 72 Hrs. [20]: 62.50%
- % Corrected Mortality at 72 Hrs. [21]: 42.50%
- % Mortality at 72 Hrs. [21]: 42.50%
